“And” between values parts separate entries of the source, which are not always exact repeats. Equal values may be shown once. Read-outs that look alike come from different tables or passages of the source.
Key:
[1] = biological target: T1, anthrax lethal factor (LF) (Bacillus anthracis, UniProt P15917); details: for Km / kcat / kcat/Km: pH 7.4
[2] = biological target: T1, anthrax lethal factor (LF)

T1 sequence (P15917 34-809 limits assumed): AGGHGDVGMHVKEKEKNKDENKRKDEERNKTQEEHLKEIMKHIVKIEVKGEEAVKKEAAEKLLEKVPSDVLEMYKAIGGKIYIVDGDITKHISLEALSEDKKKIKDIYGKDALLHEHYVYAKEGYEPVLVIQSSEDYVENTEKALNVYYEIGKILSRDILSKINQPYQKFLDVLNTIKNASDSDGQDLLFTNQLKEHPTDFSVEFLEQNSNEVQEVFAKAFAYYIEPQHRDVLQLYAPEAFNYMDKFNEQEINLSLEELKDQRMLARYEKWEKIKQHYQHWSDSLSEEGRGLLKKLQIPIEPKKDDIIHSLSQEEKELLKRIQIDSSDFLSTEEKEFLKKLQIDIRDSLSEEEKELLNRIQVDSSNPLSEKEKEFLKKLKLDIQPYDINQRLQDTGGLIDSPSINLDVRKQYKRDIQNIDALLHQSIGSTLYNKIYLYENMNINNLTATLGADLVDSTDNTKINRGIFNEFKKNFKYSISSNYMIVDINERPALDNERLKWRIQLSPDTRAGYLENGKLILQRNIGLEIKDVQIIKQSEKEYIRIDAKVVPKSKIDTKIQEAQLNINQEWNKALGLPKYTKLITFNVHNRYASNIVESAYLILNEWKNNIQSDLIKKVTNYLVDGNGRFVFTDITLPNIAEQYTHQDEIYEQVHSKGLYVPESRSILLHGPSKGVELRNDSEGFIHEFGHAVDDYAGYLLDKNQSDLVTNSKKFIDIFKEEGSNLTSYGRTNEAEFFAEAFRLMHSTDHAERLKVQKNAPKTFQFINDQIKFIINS

| Substance | Km [1] [µM] | kcat [1] [s⁻¹] | kcat/Km [1] [M⁻¹ s⁻¹] | kcat/Km [2] | fold higher kcat/Km than substrate No. 2 [1] |
| --- | --- | --- | --- | --- | --- |
| Mca-KKVYP-YPMEK-Dnp [Substrate 2] | 58.5 | 74.17 | 1.27 |  |  |
| Mca-KKPTP-IQLN-Dnp [Substrate 1] |  |  |  | 1.5 min^−1 M^−1 and 1.5 ^a min^−1 M^−1 |  |
| Mca-KKWLM-YPLEK-Dnp [Substrate 3] | 16.9 | 39.83 | 2.33 |  | about two-fold |
